Laboratory results from ChEMBL document CHEMBL4043214, “Design, synthesis, and SAR study of 3-(benzo[d][1,3]dioxol-5-yl)-N-benzylpropanamide as novel potent synergists against fluconazole-resistant Candida albicans” (2017).
In brackets after ≈: the same amount, converted by molar mass.

Experiments:
Type in all cases: functional
Candida albicans [1] = test: Anti-fungal activity against fluconazole-resistant Candida albicans isolate 100 by microbroth dilution method
Candida albicans [2] = test: Anti-fungal activity against fluconazole-resistant Candida albicans isolate 103 by microbroth dilution method
Candida albicans [3] = test: Synergistic anti-fungal activity against fluconazole-resistant Candida albicans isolate 100 in presence of fluconazole by two-fold dilution method
Candida albicans [4] = test: Synergistic anti-fungal activity against fluconazole-resistant Candida albicans isolate 103 in presence of fluconazole by two-fold dilution method
Candida albicans [5] = test: Potentiation of fluconazole-induced anti-fungal activity against fluconazole-resistant Candida albicans isolate 103 by two-fold dilution method
Candida albicans [6] = test: Potentiation of fluconazole-induced anti-fungal activity against fluconazole-resistant Candida albicans isolate 100 by two-fold dilution method
Candida albicans [7] = test: Potentiation of fluconazole-induced anti-fungal activity against fluconazole-resistant Candida albicans isolate 103 assessed as fluconazole MIC80 at 4 ug/ml by checkerboard microdilution assay
Candida albicans [8] = test: Potentiation of fluconazole-induced anti-fungal activity against fluconazole-resistant Candida albicans isolate 103 assessed as fluconazole MIC80 at 8 ug/ml by checkerboard microdilution assay
Candida albicans [9] = test: Potentiation of fluconazole-induced anti-fungal activity against fluconazole-resistant Candida albicans isolate 103 assessed as fluconazole MIC80 at 2 ug/ml by checkerboard microdilution assay
Candida albicans [10] = test: Potentiation of fluconazole-induced anti-fungal activity against fluconazole-resistant Candida albicans isolate 103 assessed as fluconazole MIC80 at 1 ug/ml by checkerboard microdilution assay
Candida albicans [11] = test: Potentiation of fluconazole-induced anti-fungal activity against fluconazole-resistant Candida albicans isolate 100 assessed as fluconazole MIC80 at 8 ug/ml by checkerboard microdilution assay
Candida albicans [12] = test: Potentiation of fluconazole-induced anti-fungal activity against fluconazole-resistant Candida albicans isolate 100 assessed as fluconazole MIC80 at 4 ug/ml by checkerboard microdilution assay
Candida albicans [13] = test: Potentiation of fluconazole-induced anti-fungal activity against fluconazole-resistant Candida albicans isolate 100 assessed as fluconazole MIC80 at 2 ug/ml by checkerboard microdilution assay
Candida albicans [14] = test: Potentiation of fluconazole-induced anti-fungal activity against fluconazole-resistant Candida albicans isolate 100 assessed as fluconazole MIC80 at 1 ug/ml by checkerboard microdilution assay
Candida albicans [15] = test: Potentiation of fluconazole-induced anti-fungal activity against fluconazole-resistant Candida albicans isolate 103 at 8 ug/ml by checkerboard microdilution assay
Candida albicans [16] = test: Potentiation of fluconazole-induced anti-fungal activity against fluconazole-resistant Candida albicans isolate 103 at 4 ug/ml by checkerboard microdilution assay
Candida albicans [17] = test: Potentiation of fluconazole-induced anti-fungal activity against fluconazole-resistant Candida albicans isolate 103 at 2 ug/ml by checkerboard microdilution assay
Candida albicans [18] = test: Potentiation of fluconazole-induced anti-fungal activity against fluconazole-resistant Candida albicans isolate 103 at 1 ug/ml by checkerboard microdilution assay
Candida albicans [19] = test: Potentiation of fluconazole-induced anti-fungal activity against fluconazole-resistant Candida albicans isolate 100 at 8 ug/ml by checkerboard microdilution assay
Candida albicans [20] = test: Potentiation of fluconazole-induced anti-fungal activity against fluconazole-resistant Candida albicans isolate 100 at 4 ug/ml by checkerboard microdilution assay
Candida albicans [21] = test: Potentiation of fluconazole-induced anti-fungal activity against fluconazole-resistant Candida albicans isolate 100 at 2 ug/ml by checkerboard microdilution assay
Candida albicans [22] = test: Potentiation of fluconazole-induced anti-fungal activity against fluconazole-resistant Candida albicans isolate 100 at 1 ug/ml by checkerboard microdilution assay

Row | Structure (SMILES) | MIC80 (Candida albicans [1]) [µg/mL] | MIC80 (Candida albicans [2]) [µg/mL] | MIC80 (Candida albicans [3]) [µg/mL] | MIC80 (Candida albicans [4]) [µg/mL] | fractional inhibitory concentration index (FICI) (Candida albicans [5]) | fractional inhibitory concentration index (FICI) (Candida albicans [6]) | other results
1 | O=C(CCc1ccc2c(c1)OCO2)NCc1ccc(-c2ccc(F)cc2F)cc1 | > 64 | > 64 | 0.063 | 0.125 | 0.063 | 0.063 | –
2 | COc1ccc(-c2ccc(CNC(=O)CCc3ccc4c(c3)OCO4)cc2)cc1 | > 64 | > 64 | 0.25 | 0.5 | 0.066 | 0.064 | –
3 | OC(Cn1cncn1)(Cn1cncn1)c1ccc(F)cc1F [FLUCONAZOLE] | 128 (≈ 418 µM) | 128 (≈ 418 µM) | – | – | – | – | –
4 | Cc1ccc(-c2ccccc2CNC(=O)CCc2ccc3c(c2)OCO3)cc1 | > 64 | > 64 | 0.25 | 0.25 | 0.064 | 0.064 | –
5 | Cc1ccccc1CNC(=O)CCc1ccc2c(c1)OCO2 | > 64 | > 64 | 0.25 | 0.5 | 0.066 | 0.064 | –
6 | Cc1cccc(-c2ccc(CNC(=O)CCc3ccc4c(c3)OCO4)cc2)c1 | > 64 | > 64 | 0.5 | 1 | 0.07 | 0.066 | –
7 | O=C(CCc1ccc2c(c1)OCO2)NCc1ccc(Br)cc1 | > 64 | > 64 | 0.5 | 1 | 0.07 | 0.066 | –
8 | O=C(CCc1ccc2c(c1)OCO2)NCc1ccc(-c2cccs2)cc1 | > 64 | > 64 | 0.063 | 0.125 | 0.063 | 0.063 | –
9 | O=C(CCc1ccc2c(c1)OCO2)NCc1ccc(-c2ccsc2)cc1 | > 64 | > 64 | 0.25 | 0.25 | 0.064 | 0.064 | –
10 | O=C(Cc1ccccc1F)NCCc1ccc2c(c1)OCO2 | > 64 | > 64 | 1 | 1 | 0.07 | 0.07 | –
11 | Cc1ccc(-c2cccc(CNC(=O)CCc3ccc4c(c3)OCO4)c2)cc1 | > 64 | > 64 | 1 | 2 | 0.078 | 0.07 | –
12 | Cc1ccc(-c2ccc(CNC(=O)CCc3ccc4c(c3)OCO4)cc2)cc1 | > 64 | > 64 | 0.063 | 0.063 | 0.063 | 0.063 | MIC80 (Candida albicans [7]): 1 µg/mL; MIC80 (Candida albicans [8]): 0.063 µg/mL; MIC80 (Candida albicans [9]): 1 µg/mL; MIC80 (Candida albicans [10]): 2 µg/mL; MIC80 (Candida albicans [11]): 0.063 µg/mL; MIC80 (Candida albicans [12]): 0.5 µg/mL; MIC80 (Candida albicans [13]): 1 µg/mL; MIC80 (Candida albicans [14]): 2 µg/mL; fractional inhibitory concentration index (FICI) (Candida albicans [15]): 0.063; fractional inhibitory concentration index (FICI) (Candida albicans [16]): 0.039; fractional inhibitory concentration index (FICI) (Candida albicans [17]): 0.023; fractional inhibitory concentration index (FICI) (Candida albicans [18]): 0.023; fractional inhibitory concentration index (FICI) (Candida albicans [19]): 0.063; fractional inhibitory concentration index (FICI) (Candida albicans [20]): 0.035; fractional inhibitory concentration index (FICI) (Candida albicans [21]): 0.023; fractional inhibitory concentration index (FICI) (Candida albicans [22]): 0.023
13 | O=C(CCc1ccc2c(c1)OCO2)NCc1cccc(Br)c1 | > 64 | > 64 | 2 | 2 | 0.078 | 0.078 | –
14 | O=C(CCc1ccc2c(c1)OCO2)NCc1ccc(-c2ccc(C(F)(F)F)cc2)cc1 | > 64 | > 64 | 4 | 4 | 0.094 | 0.094 | –
15 | O=C(CCc1ccc2c(c1)OCO2)NCc1ccc(-c2ccco2)cc1 | > 64 | > 64 | 2 | 4 | 0.094 | 0.078 | –
16 | O=C(CCc1ccc2c(c1)OCO2)NCc1ccc(-c2ccncc2)cc1 | > 64 | > 64 | 8 | 8 | 0.125 | 0.125 | –
17 | O=C(CCc1ccc2c(c1)OCO2)NCc1ccccc1Br | > 64 | > 64 | 1 | 1 | 0.07 | 0.07 | –
18 | O=C(CCc1ccc2c(c1)OCO2)NCc1ccc(-c2cccc(F)c2)cc1 | > 64 | > 64 | 0.25 | 0.25 | 0.064 | 0.064 | –
19 | O=C(CCc1ccc2c(c1)OCO2)NCc1cccc(-c2ccc(F)cc2)c1 | > 64 | > 64 | 0.5 | 1 | 0.07 | 0.066 | –
20 | COc1ccc2cc3[n+](cc2c1OC)CCc1cc2c(cc1-3)OCO2 [BERBERINE] | 32 | 32 | 1 | 1 | 0.093 | 0.093 | MIC80 (Candida albicans [7]): 1 µg/mL; MIC80 (Candida albicans [8]): 1 µg/mL; MIC80 (Candida albicans [9]): 1 µg/mL; MIC80 (Candida albicans [10]): 2 µg/mL; MIC80 (Candida albicans [11]): 1 µg/mL; MIC80 (Candida albicans [12]): 1 µg/mL; MIC80 (Candida albicans [13]): 1 µg/mL; MIC80 (Candida albicans [14]): 2 µg/mL; fractional inhibitory concentration index (FICI) (Candida albicans [15]): 0.093; fractional inhibitory concentration index (FICI) (Candida albicans [16]): 0.063; fractional inhibitory concentration index (FICI) (Candida albicans [17]): 0.039; fractional inhibitory concentration index (FICI) (Candida albicans [18]): 0.07; fractional inhibitory concentration index (FICI) (Candida albicans [19]): 0.093; fractional inhibitory concentration index (FICI) (Candida albicans [20]): 0.063; fractional inhibitory concentration index (FICI) (Candida albicans [21]): 0.039; fractional inhibitory concentration index (FICI) (Candida albicans [22]): 0.07
21 | O=C(CCc1ccc2c(c1)OCO2)NCc1ccc(-c2ccc(F)cc2)cc1 | > 64 | > 64 | 0.031 | 0.063 | 0.063 | 0.063 | MIC80 (Candida albicans [7]): 0.125 µg/mL; MIC80 (Candida albicans [8]): 0.063 µg/mL; MIC80 (Candida albicans [9]): 0.25 µg/mL; MIC80 (Candida albicans [10]): 0.25 µg/mL; MIC80 (Candida albicans [11]): 0.031 µg/mL; MIC80 (Candida albicans [12]): 0.063 µg/mL; MIC80 (Candida albicans [13]): 0.125 µg/mL; MIC80 (Candida albicans [14]): 0.25 µg/mL; fractional inhibitory concentration index (FICI) (Candida albicans [15]): 0.064; fractional inhibitory concentration index (FICI) (Candida albicans [16]): 0.032; fractional inhibitory concentration index (FICI) (Candida albicans [17]): 0.018; fractional inhibitory concentration index (FICI) (Candida albicans [18]): 0.01; fractional inhibitory concentration index (FICI) (Candida albicans [19]): 0.064; fractional inhibitory concentration index (FICI) (Candida albicans [20]): 0.032; fractional inhibitory concentration index (FICI) (Candida albicans [21]): 0.017; fractional inhibitory concentration index (FICI) (Candida albicans [22]): 0.01
22 | O=C(CCc1ccc2c(c1)OCO2)NCc1cccc(F)c1 | > 64 | > 64 | 1 | 1 | 0.07 | 0.07 | –
23 | N#Cc1ccc(-c2ccc(CNC(=O)CCc3ccc4c(c3)OCO4)cc2)cc1 | > 64 | > 64 | 8 | 8 | 0.125 | 0.125 | –
24 | O=C(CCc1ccc2c(c1)OCO2)NCc1ccccc1F | > 64 | > 64 | 0.5 | 0.5 | 0.066 | 0.066 | –
25 | O=C(CCc1ccc2c(c1)OCO2)NCc1ccccc1-c1ccc(F)cc1 | > 64 | > 64 | 0.5 | 0.5 | 0.066 | 0.066 | –
26 | O=C(CCc1ccc2c(c1)OCO2)NCc1ccc(-c2ccc(Cl)cc2)cc1 | > 64 | > 64 | 0.5 | 0.5 | 0.066 | 0.066 | –
